Laboratory results: patent US20060069132A1, “Azolecarboxamide herbicides” (priority 2004, published 2006)

Columns and labels:
[1] = system: large crabgrass; test: Test A pre-/postemergence herbicide test; type: in vivo, Digitaria sanguinalis
Outline: (§1)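 Sandy loam soil given preemergence directed spray; plants at 2 to 10 cm, one- to two-leaf stage, sprayed to runoff postemergence, compounds in non-phytotoxic solvent with surfactant. Injury rated visually versus untreated controls after about ten greenhouse days, 0 (no effect) to 100 (complete control); dash means not tested.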

[2] = system: velvetleaf; test: Test A pre-/postemergence herbicide test; type: in vivo, Abutilon theophrasti
Outline: as §1

[3] = system: wild oat; test: Test B postemergence herbicide test; type: in vivo, Avena fatua; details: postemergence
Outline: (§2)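 Read-out: visual comparison with controls, scored 0 to 100, where 100 means complete control and 0 no effect. Formulated chemicals were applied postemergence to plants 2–18 cm tall (1- to 4-leaf), or to flooded-paddy plants at the 2-leaf stage, then held 13 to 15 days under glass.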

[4] = system: rice; test: Test B pre-/postemergence herbicide test; type: in vivo, Oryza sativa; details: 0 = no effect, 100 = complete control, preemergence
Outline: (§3)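 Response was scored visually 13 to 15 days after treatment against untreated greenhouse controls, 0 meaning no effect and 100 complete control. Formulations (solvent mixture plus surfactant) went onto soil after planting, onto foliage of 1- to 4-leaf plants, and onto 2-leaf plants in a flooded paddy set including rice and barnyardgrass.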

[5] = system: Surinam grass; test: Test B pre-/postemergence herbicide test; type: in vivo, Urochloa decumbens; details: for Surinam Grass plant response rating: postemergence
Outline: as §3

[6] = system: wheat; test: Test B postemergence herbicide test; type: in vivo, Triticum aestivum; set-up: key to Wheat plant response rating: 0 = no effect, 100 = complete control; details: postemergence
Outline: as §2

[7] = system: barnyardgrass; test: Test B flooded paddy test; type: in vivo, Echinochloa crus-galli; details: 1000 g ai/ha, scale 0 to 100 (0 no effect, 100 complete control)
Outline: (§4)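 Each value is a visual 0–100 response rating taken against controls 13 to 15 days after treatment in the greenhouse. Plants received formulated chemical postemergence at the 1- to 4-leaf stage or, in flooded paddy, at the 2-leaf stage.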

[8] = system: small flower umbrella sedge; test: Test B flooded paddy test; type: in vivo, Cyperus difformis; details: 1000 g ai/ha, scale 0 to 100 (0 no effect, 100 complete control)
Outline: as §4

[9] = system: large crabgrass; test: Test B pre-/postemergence herbicide test; type: in vivo, Digitaria sanguinalis; details: for Crabgrass, Large plant response rating: postemergence
Outline: as §3

[10] = system: giant foxtail; test: Test A pre-/postemergence herbicide test; type: in vivo, Setaria faberi
Outline: as §1

[11] = system: giant foxtail; test: Test B pre-/postemergence herbicide test; type: in vivo, Setaria faberi; details: for Foxtail, Giant plant response rating: postemergence
Outline: as §3

[12] = system: morningglory; test: Test B pre-/postemergence herbicide test; type: in vivo, Ipomoea coccinea; details: for Morningglory plant response rating: postemergence
Outline: (§5)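 Evaluation is visual, comparing treated with control plants on a scale where 0 means no effect and 100 means full control. Treatments were preemergence, or postemergence on seedlings 2–18 cm tall, and held 13–15 days in the greenhouse.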

[13] = system: barnyardgrass; test: Test B pre-/postemergence herbicide test; type: in vivo, Echinochloa crus-galli; details: for Barnyardgrass plant response rating: postemergence
Outline: as §5

[14] = system: barnyardgrass; test: Test A pre-/postemergence herbicide test; type: in vivo, Echinochloa crus-galli
Outline: as §1

[15] = system: ducksalad; test: Test B flooded paddy test; type: in vivo, Heteranthera limosa; details: 1000 g ai/ha, scale 0 to 100 (0 no effect, 100 complete control)
Outline: as §4

[16] = system: blackgrass; test: Test B postemergence herbicide test; type: in vivo, Alopecurus myosuroides; details: postemergence
Outline: as §4

[17] = system: morningglory; test: Test A pre-/postemergence herbicide test; type: in vivo, Ipomoea spp.
Outline: as §1

[18] = system: pigweed; test: Test B pre-/postemergence herbicide test; type: in vivo, Amaranthus retroflexus; details: for Pigweed plant response rating: postemergence
Outline: as §3

[19] = system: velvetleaf; test: Test B pre-/postemergence herbicide test; type: in vivo, Abutilon theophrasti; details: for Velvetleaf plant response rating: postemergence
Outline: as §3

[20] = system: lambsquarters; test: Test B pre-/postemergence herbicide test; type: in vivo, Chenopodium album; details: for Lambsquarters plant response rating: postemergence
Outline: as §3

[21] = system: corn; test: Test B pre-/postemergence herbicide test; type: in vivo, Zea mays; details: for Corn plant response rating: postemergence
Outline: as §3

[22] = system: redroot pigweed; test: Test A pre-/postemergence herbicide test; type: in vivo, Amaranthus retroflexus
Outline: as §1

[23] = system: rice; test: Test B flooded paddy test; type: in vivo, Oryza sativa; details: 1000 g ai/ha, scale 0 to 100 (0 no effect, 100 complete control)
Outline: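 Postemergence plants were sprayed with formulated test chemicals at 2 to 18 cm height (1- to 4-leaf stage); paddy species were grown to the 2-leaf stage. After 13 to 15 days in a greenhouse, injury was rated visually against untreated controls on a 0–100 scale (0 = no effect, 100 = complete control).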

[24] = system: cocklebur; test: Test B pre-/postemergence herbicide test; type: in vivo, Xanthium strumarium; details: for Cocklebur plant response rating: postemergence
Outline: as §5

[25] = Postemergence, 500 g ai/ha, 0 to 100 scale, 0 no effect, 100 complete control
[26] = Postemergence, 2000 g ai/ha, 0 to 100 scale, 0 no effect, 100 complete control
[27] = Preemergence, 2000 g ai/ha, visual rating, 0 to 100 scale (0 no effect, 100 complete control)
[28] = preemergence, 500 g ai/ha, visual injury, 0 to 100 scale (0 no effect, 100 complete control)
[29] = 125 g ai/ha, visual rating, scale 0 (no effect) to 100 (complete control)
[30] = 500 g ai/ha, scale 0 to 100, 0 is no effect, 100 is complete control
[31] = 125 g ai/ha, 0 = no effect, 100 = complete control, preemergence
[32] = 500 g ai/ha, visual rating, 0 = no effect, 100 = complete control, preemergence

SMILES: C#CCNC(=O)c1cncc(NC(=O)c2cc(C(C)(C)C)nn2CC)n1 [Compound 289]
- Crabgrass, Large plant response rating [1, 25]: 20
- Plant response rating, Crabgrass, Large [1, 26]: 20
- Crabgrass, Large plant response rating [1, 27]: 55
- Crabgrass, Large plant response rating [1, 28]: 0
- Velvetleaf plant response rating [2, 25]: 0
- Plant response rating, Velvetleaf [2, 26]: 5
- Velvetleaf plant response rating [2, 27]: 20
- Velvetleaf plant response rating [2, 28]: 0
- Oat, Wild plant response rating [3, 29]: 20
- Oat, Wild plant response rating [3, 30]: 30
- Rice plant response rating (0 to 100 scale) ([4]; 125 g ai/ha): 0
- Plant response rating, Rice ([4]; 500 g ai/ha, visual rating): 0
- Surinam Grass plant response rating (0 to 100 scale) [5, 31]: 0
- Surinam Grass plant response rating [5, 29]: 0
- Plant response rating, Surinam Grass [5, 32]: 0
- Surinam Grass plant response rating [5, 30]: 0
- Wheat plant response rating [6, 29]: 20
- Wheat plant response rating [6, 30]: 20
- Barnyardgrass plant response rating [7]: 0
- Sedge, Umbrella plant response rating [8]: 0
- Crabgrass, Large plant response rating (0 to 100 scale) [9, 31]: 0
- Crabgrass, Large plant response rating [9, 29]: 0
- Plant response rating, Crabgrass, Large [9, 32]: 20
- Crabgrass, Large plant response rating [9, 30]: 0
- Foxtail, Giant plant response rating [10, 25]: 10
- Plant response rating, Foxtail, Giant [10, 26]: 70
- Foxtail, Giant plant response rating [10, 27]: 40
- Foxtail, Giant plant response rating [10, 28]: 10
- Foxtail, Giant plant response rating (0 to 100 scale) [11, 31]: 0
- Foxtail, Giant plant response rating [11, 29]: 20
- Plant response rating, Foxtail, Giant [11, 32]: 0
- Foxtail, Giant plant response rating [11, 30]: 60
- Morningglory plant response rating (0 to 100 scale) [12, 31]: 0
- Morningglory plant response rating [12, 29]: 0
- Plant response rating, Morningglory [12, 32]: 0
- Morningglory plant response rating [12, 30]: 0
- Barnyardgrass plant response rating (0 to 100 scale) [13, 31]: 0
- Barnyardgrass plant response rating [13, 29]: 0
- Plant response rating, Barnyardgrass [13, 32]: 0
- Barnyardgrass plant response rating [13, 30]: 0
- Barnyardgrass plant response rating [14, 25]: 10
- Plant response rating, Barnyardgrass [14, 26]: 40
- Barnyardgrass plant response rating [14, 27]: 50
- Barnyardgrass plant response rating [14, 28]: 0
- Ducksalad plant response rating [15]: 0
- Blackgrass plant response rating [16, 29]: 10
- Blackgrass plant response rating [16, 30]: 10
- Morningglory plant response rating [17, 25]: 10
- Plant response rating, Morningglory [17, 26]: 20
- Morningglory plant response rating [17, 27]: 15
- Morningglory plant response rating [17, 28]: 0
- Pigweed plant response rating (0 to 100 scale) [18, 31]: 0
- Pigweed plant response rating [18, 29]: 10
- Plant response rating, Pigweed [18, 32]: 100
- Pigweed plant response rating [18, 30]: 20
- Velvetleaf plant response rating [19, 29]: 0
- Plant response rating, Velvetleaf [19, 32]: 0
- Velvetleaf plant response rating [19, 30]: 10
- Lambsquarters plant response rating (0 to 100 scale) [20, 31]: 0
- Lambsquarters plant response rating [20, 29]: 0
- Plant response rating, Lambsquarters [20, 32]: 100
- Lambsquarters plant response rating [20, 30]: 30
- Corn plant response rating (0 to 100 scale) [21, 31]: 0
- Corn plant response rating [21, 29]: 0
- Plant response rating, Corn [21, 32]: 0
- Corn plant response rating [21, 30]: 0
- Pigweed plant response rating [22, 25]: 20
- Plant response rating, Pigweed [22, 26]: 50
- Pigweed plant response rating [22, 27]: 75
- Pigweed plant response rating [22, 28]: 0
- Rice plant response rating [23]: 0
- Cocklebur plant response rating (0 to 100 scale) [24, 31]: 0
- Cocklebur plant response rating [24, 29]: 0
- Plant response rating, Cocklebur [24, 32]: 0
- Cocklebur plant response rating [24, 30]: 0
